# Laboratory results from patent US8618079B2, “Imidazo[1,2-a] pyridinyl bisphosphonates” (Isis Innovation Limited, priority 2008, dated 2013).
# Key:
# Sprague Dawley rats = assay: Schenk model, in vivo bone resorption inhibition (tibial BMD); conditions: rat, subcutaneous once daily for 7 days; dose increasing proximal tibial BMD 20% over control
# Procedure: The compounds were evaluated for in vivo bone resorption inhibition and mineralization inhibition in an animal model system known in the field of bone metabolism as the Schenk Model. The general principles of this model system are disclosed in Shinoda et al., Calcif. Tissue Int., 35: 87-99 (1983); and in Schenk et al., Calcif. Tissue Res. 11: 196-214 (1973), the disclosures of which are incorporated herein by reference in their entireties.
# Animals: Weanling male Sprague Dawley rats (Charles River Breeding Laboratories, Raleigh, N.C.) approximately 6 weeks old with weights ranging between 120 and 150 grams were placed into groups based on body weight, with 6 animals per group. All groups received treatment by subcutaneous injection (SQ) once daily (QD) for 7 days.
# Dose Solutions and Dosing Procedure: On day 0, all animals received an injection of 3% xylenol orange (90 mg/kg; Sigma) in normal saline, pH adjusted to 7.4. On day 4 all animals were given a subcutaneous injection of 1% Calcein (10 mg/kg, Sigma) in 0.9% NaCl solution to label the skeleton. The first treatment was on day 0, and the last treatment on day 6, with animals euthanized on day 7. Concentrations were based on dosing 0.2 ml/100 g body weight. Compounds were administered at doses ranging from 0.0001 to 1 mg P/kg/day for 7 days at semi-log doses. The dose range was based on the IC 50 in the FPPS inhibition assay, and on the affinity to hydroxyapatite (HAP Affinity). Three to seven doses were chosen per test compound. Adjustments in dosage based on changes in body weight were made on a daily basis.
# Necropsy, Tissue Processing and Histomorphometry: On day 7 after the start of dosing, all animals were euthanized via exsanguination under gas anesthesia and/or CO2. The right tibia and femur were dissected free and placed in 70% ethyl alcohol. The proximal metaphysis of the right tibia was analyzed using dual energy x-ray analysis (DXA). This provides information on changes in both cortical and cancellous bone density. The primary end-point for this study was bone mineral density in the tibia measured using a Hologics QDR-4500 densitometer (Hologics, Inc). Statistical evaluation of data was made using parametric and non-parametric analysis of variance and Wilcoxon's rank sum test to determine a statistically significant effect compared to control animals.
# The Schenk model provided data for in vivo bone resorption inhibition by the compounds, see Table 3. Bone mineral density (BMD) was assessed with a Hologics 4500A on a region of the proximal tibial metaphysic. Efficacy of each bisphosphonate was expressed as the percent change from the vehicle control group. The dose that increased bone mineral density (BMD) 20% greater than control was determined via a logistic dose response relationship (SAS), which estimates an efficacy value using all animals in the study, and identified as D20 for comparison of bisphosphonates across studies. (Lundy et al., J. Bone Min. Res. 22(Suppl 1): S443, (2007)). Data from compounds run in multiple studies was averaged.
# [1] = Hydroxyapatite (HAP) affinity, chromatographic retention on HAP column; assay type: physicochemical; conditions: phosphate buffer gradient 1 mM to 1000 mM, pH 6.8, longer retention = higher mineral affinity
# [2] = biological target: T1, human farnesyl pyrophosphate synthase (FPPS) (Homo sapiens, UniProt P14324); assay: FPPS inhibition; assay type: biochemical; conditions: recombinant human FPPS; for IC50: after pre-incubation; for Ki: read-out: FPPS inhibition Ki (final inhibition constant)
# T1 construct: made in house
# T1 sequence (P14324 67-419 limits assumed): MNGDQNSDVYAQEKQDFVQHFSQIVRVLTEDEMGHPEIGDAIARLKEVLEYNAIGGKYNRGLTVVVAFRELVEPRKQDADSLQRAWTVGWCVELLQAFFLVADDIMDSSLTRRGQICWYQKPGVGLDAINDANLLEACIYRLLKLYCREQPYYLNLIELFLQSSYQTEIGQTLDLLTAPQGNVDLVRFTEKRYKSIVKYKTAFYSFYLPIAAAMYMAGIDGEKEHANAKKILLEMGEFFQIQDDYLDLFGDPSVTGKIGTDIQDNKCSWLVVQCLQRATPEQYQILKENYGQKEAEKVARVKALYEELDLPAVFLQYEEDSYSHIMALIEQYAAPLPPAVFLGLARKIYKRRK
# [3] = test system: collagen induced arthritis (CIA) rat; assay: Collagen induced arthritis (CIA) rat model, bone resorption scores; assay type: in vivo
# Procedure: The collagen induced arthritis (CIA) rat model is an in vivo model that provides for an evaluation of the inhibition of inflammation as well as inhibition of bone erosion. The study was performed according to the method of Bendele et al., Arthritis & Rheumatism, 43: 2648-2659 (2000), incorporated herein by reference in its entirety, with the exception that male animals were used instead of female animals.
# Arthritis was induced in rats by injecting collagen on days 0 and 6. The bisphosphonate compound of Example 4 (1-fluoro-2-(imidazo-[1,2-α]pyridin-3-yl)-ethyl-bisphosphonic acid) was administered at four different dosages (1.57 μg/kg, 15.69 μg/kg, 156.9 μg/kg, and 523.0 μg/kg; n=10/group) by subcutaneous injection on day 0, and compared to vehicle control (n=10). An additional group was administered 10 mg/kg Enbrel® (n=10) on days 9, 12, and 15 as a positive control. The study was stopped on day 17 and the animals were evaluated for ankle thickness and paw weight, indices of inflammation. The ankle and knees were removed as one piece, placed in formalin, decalcified and processed for histology. Sections were stained with toluidine blue and graded for inflammation, pannus and cartilage degradation on a score of 0 (normal) to 5 (severe). Bone erosion was also scored in the ankle and knee on a 0-5 score.
Structure (SMILES),Schenk D20 (mg P/kg) 20% > BMD than control (Sprague Dawley rats) [mg P/kg],HAP Affinity Retention time [1] [min],IC50 [2] [nM],Ki [2] [nM],"ankle bone resorption score, dose response ([3]; single subcutaneous injection day 0, 1.57-523.0 μg/kg, scored day 17 (FIG. 9))","knee bone resorption score, dose response ([3]; single subcutaneous injection day 0, 1.57-523.0 μg/kg, scored day 17 (FIG. 10))","knee bone resorption score, decrease relative to vehicle ([3]; three highest dosage levels (15.69 μg/kg, 156.9 μg/kg and 523.0 μg/kg), p=0.05 (FIG. 10))","ankle bone resorption score, decrease relative to vehicle ([3]; two highest dosage levels (156.9 μg/kg and 523.0 μg/kg), p=0.05 (FIG. 9))"
"NCCCC(O)(P(=O)(O)O)P(=O)(O)O [Alendronate, reference compound]",0.0015,–,–,–,–,–,–,–
"O=P(O)(O)C(O)(Cc1cnc2ccccn12)P(=O)(O)O [Minodronate, reference compound]",0.0001,10.33,–,–,–,–,–,–
"O=P(O)(O)C(O)(Cc1cccnc1)P(=O)(O)O [Risedronate, reference compound]",0.00045,9.97,–,–,–,–,–,–
"O=P(O)(O)C(O)(Cn1ccnc1)P(=O)(O)O [Zoledronate, reference compound]",0.00008,12.53,–,–,–,–,–,–
"Cc1ccn2c(CC(F)(P(=O)(O)O)P(=O)(O)O)cnc2c1 [compound 11, 1-fluoro-2-(7-methyl)-imidazo-[1,2-α]pyridin-3-yl-ethyl-bisphosphonic acid]",0.002,6.2,60.3,9.6,–,–,–,–
"Cc1ccn2c(CC(P(=O)(O)O)P(=O)(O)O)cnc2c1 [compound 15, 2-(7-methyl)-imidazo-[1,2-α]pyridin-3-yl-ethyl-bisphosphonic acid]",0.008,6.6,39.7,6.1,–,–,–,–
"O=P(O)(O)C(F)(Cc1cnc2ccccn12)P(=O)(O)O [compound 23, 1-fluoro-2-(imidazo-[1,2-α]pyridin-3-yl)-ethyl-bisphosphonic acid]",0.0003,6.17,2.46,0.014,dose-dependent decrease in bone resorption,dose dependent decrease in bone resorption,statistically different,statistically different
"O=P(O)(O)C(Cc1cnc2ccc(F)cn12)P(=O)(O)O [compound 34, [2-(6-fluoro-imidazo[1,2-α]pyridin-3-yl)-ethyl]-bisphosphonic acid]",–,6.3,106,17.5,–,–,–,–
"O=P(O)(O)C(Cc1cnc2c(O)cccn12)P(=O)(O)O [compound 40, [2-(8-hydroxy-imidazo[1,2-α]pyridin-3-yl)-1-ethane]-bisphosphonic acid]",–,5.3,893,151,–,–,–,–
"CCc1nc2ccccn2c1CC(P(=O)(O)O)P(=O)(O)O [compound 75, [(2-ethyl-imidazo[1,2-α]pyridin-3-yl)-methyl]-bisphosphonic acid]",–,4.83,27,2.5,–,–,–,–
"O=P(O)(O)C(Cc1cnc2ccccn12)P(=O)(O)O [compound 80, 2-(imidazo-[1,2-α]pyridin-3-yl)-ethyl-bisphosphonic acid]",0.0006,6.6,2.59,0.013,–,–,–,–
"Cc1ccc2ncc(CC(P(=O)(O)O)P(=O)(O)O)n2c1 [compound 81, 2-(6-methylimidazo-[1,2-α]pyridin-3-yl)-ethyl-bisphosphonic acid]",–,6.6,380,64,–,–,–,–
